Blank lines part the entries; values can stand above or below the compound they belong to.
Assays:
[1] = Competitive inhibition of bovine pancreatic RNase A type 12-A assessed as degradation of yeast tRNA preincubated for 10 mins before addition of the enzyme by double reciprocal plot analysis; design: species or system Bos taurus
Ribonuclease pancreatic = biological target: T1, Ribonuclease pancreatic (Bos taurus, UniProt P61823); assay: Inhibition of bovine pancreatic RNase A
T1 sequence (P61823 whole entry): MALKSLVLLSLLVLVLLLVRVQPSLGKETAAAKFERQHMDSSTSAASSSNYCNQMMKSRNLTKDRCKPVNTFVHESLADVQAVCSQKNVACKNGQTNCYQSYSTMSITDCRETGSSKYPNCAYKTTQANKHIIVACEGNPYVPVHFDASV

[2] = Competitive inhibition of bovine pancreatic RNase A type 12-A by Dixon plot analysis; design: species or system Bos taurus
Bos taurus = species on record: Bos taurus; assay: Competitive inhibition of bovine pancreatic RNase A type 12-A assessed as degradation of yeast tRNA at 50 uM preincubated for 10 mins before addition of the enzyme by double reciprocal plot analysis
[3] = biological target: Ribonuclease pancreatic (Bos taurus) (UniProt P61823); assay: Inhibition of RNase A
[4] = biological target: T2, Non-secretory ribonuclease (Homo sapiens, UniProt P10153); assay: Inhibition of EDN
T2 sequence (P10153 whole entry): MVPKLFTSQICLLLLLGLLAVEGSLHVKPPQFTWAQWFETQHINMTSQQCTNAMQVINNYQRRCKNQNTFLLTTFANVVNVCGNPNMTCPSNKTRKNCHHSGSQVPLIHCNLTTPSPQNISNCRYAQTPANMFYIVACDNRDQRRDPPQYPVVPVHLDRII

Angiogenin = Angiogenin (Homo sapiens, UniProt P03950); assay: Inhibition of ANG
Angiogenin, sequence (P03950 whole entry): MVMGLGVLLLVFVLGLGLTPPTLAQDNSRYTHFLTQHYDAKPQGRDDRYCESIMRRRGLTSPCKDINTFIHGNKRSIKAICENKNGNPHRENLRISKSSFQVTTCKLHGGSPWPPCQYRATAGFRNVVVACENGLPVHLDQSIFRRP

- Ki [1]: 94.8 µM
Structure (SMILES): O=c1[nH]c(=O)n(Cc2cn([C@@H]3O[C@H](CO)[C@@H](O)[C@H]3O)nn2)cc1Cl

- Ki (Ribonuclease pancreatic): 0.24 µM
Structure (SMILES): O=c1ccn(Cc2cn([C@@H]3O[C@H](CO)[C@@H](O)[C@H]3O)nn2)c(=O)[nH]1

- Ki [1]: 28.5 µM
Structure (SMILES): O=c1ccn([C@@H]2O[C@H](CO)[C@@H](O)[C@H]2O)c(=O)[nH]1 [URIDINE]

- Ki [1]: 44.5 µM
Structure (SMILES): O=c1[nH]c(=O)n([C@@H]2O[C@H](CO)[C@@H](O)[C@H]2O)cc1Cl

- Ki [1]: 44.1 µM
Structure (SMILES): Cc1cn([C@@H]2O[C@H](CO)[C@@H](O)[C@H]2O)c(=O)[nH]c1=O

- Ki [2]: 4000 µM
Structure (SMILES): O=c1ccn([C@@H]2O[C@H](COP(=O)(O)O)[C@@H](O)[C@H]2O)c(=O)[nH]1

- inhibition (Bos taurus): 20%
Structure (SMILES): O=c1[nH]c(=O)n(Cc2cn([C@@H]3O[C@H](CO)[C@@H](O)[C@H]3O)nn2)cc1Br

- Ki [2]: 650 µM
Structure (SMILES): O=c1ccn([C@@H]2O[C@H](COP(=O)(O)OP(=O)(O)O)[C@@H](O)[C@H]2O)c(=O)[nH]1 [URIDINE_DIPHOSPHATE]

- Ki [1]: 33.6 µM
Structure (SMILES): O=c1[nH]c(=O)n([C@@H]2O[C@H](CO)[C@@H](O)[C@H]2O)cc1F [5-FLUOROURIDINE]

- Ki [1]: 69.1 µM
Structure (SMILES): O=c1[nH]c(=O)n([C@@H]2O[C@H](CO)[C@@H](O)[C@H]2O)cc1Br

- Ki [3]: 0.027 µM
- Ki [4]: 0.18 µM
- Ki (Angiogenin): 360 µM
Structure (SMILES): Nc1ncnc2c1ncn2[C@@H]1O[C@H](COP(=O)(O)OP(=O)(O)O[C@H]2C[C@H](n3ccc(=O)[nH]c3=O)O[C@@H]2COP(=O)(O)O)[C@@H](OP(=O)(O)O)[C@H]1O
